Test results as given in patent EP0044212B1, “Herbicidal o-alkylsulfonyloxy- and o-alkylsulfonylamino-benzenesulfonamides” (E.I. DU PONT DE NEMOURS AND COMPANY, priority 1980, dated 1982).

How the values were obtained:
Sugarbeets [1] = test: Test B pre-emergence on Fallsington silt loam; format: in vivo; set-up: scale not given here; conditions: 0.25 kg/ha, 28 days
Excerpt: (§1) Two plastic bulb pans were filled with fertilized and limed Fallsington silt loam soil. One pan was planted with corn, sorghum, Kentucky bluegrass and several grassy weeds. The other pan was planted with cotton, soybeans, purple nutsedge (Cyperus rotundus), and several broadleaf weeds. The following grassy and broadleaf weeds were planted: crabgrass (Digitaria sanguinalis), barnyardgrass (Echinochloa crusgalli), wild oats (Avena fatua), johnsongrass (Sorghum halepense), dallisgrass (Paspalum dilatatum), giant foxtail (Setaria faberii), cheatgrass (Bromus secalinus), mustard (Brassica arvensis), cocklebur (Xanthium pensylvanicum), pigweed (Amaranthus retroflexus), morningglory (Ipomoea hederacea), cassia (Cassia tora), teaweed (Sida spinosa), velvetleaf (Abutilon theophrasti), and jimsonweed (Datura stramonium). A 12.5 cm diameter plastic pot was also filed with prepared soil and planted with rice and wheat. Another 12.5 cm pot was planted with sugarbeets. The above four containers were treated pre- emergence with several test compounds within the scope of the invention.
(§2) Twenty-eight days after treatment, the plants were evaluated and visually rated for response to the chemical treatments utilizing the rating system described previously for Test A. The data are summarized in Table B.

Wheat [2] = test: Test B pre-emergence on Fallsington silt loam; format: in vivo; set-up: scale not given here; conditions: 28 days
Excerpt: as §1, §2

Corn [3] = test: Test B pre-emergence on Fallsington silt loam; format: in vivo; set-up: scale not given here; conditions: 28 days
Excerpt: as §1, §2

Giant Foxtail [4] = test: Test B pre-emergence on Fallsington silt loam; format: in vivo, Setaria faberii; conditions: 28 days
Excerpt: as §1, §2

Soybean = test: Test B pre-emergence on Fallsington silt loam; format: in vivo, soybeans; conditions: 28 days
Excerpt: as §1, §2

Dallisgrass = test: Test B pre-emergence on Fallsington silt loam; format: in vivo, Paspalum dilatatum; set-up: scale not given here; conditions: 28 days
Excerpt: as §1, §2

Johnsongrass = test: Test B pre-emergence on Fallsington silt loam; format: in vivo, Sorghum halepense; set-up: scale not given here; conditions: 28 days
Excerpt: as §1, §2

Pigweed = test: Test B pre-emergence on Fallsington silt loam; format: in vivo, Amaranthus retroflexus; conditions: 0.06 kg/ha, 28 days
Excerpt: as §1, §2

Sorghum = test: Test F over-the-top soil/foliage treatment; format: in vivo; set-up: scale not given here; conditions: soil/foliage spray, ~14 days
Protocol: (§3) The test chemicals, dissolved in a non-phytotoxic solvent, were applied in an overall spray to the foliage and surrounding […] of selected plant species. […] Approximately fourteen days after treatment, all species were visually compared to untreated controls and rated for response to treatment.
(§4) All plant species were seeded in Woodstown sandy loam soil and grown in a greenhouse. The following species were grown in soil contained in plastic pots (25 cm diameter by 13 cm deep): soybeans, cotton, alfalfa, corn, rice, wheet, sorghum, velvetleaf (Abutilon theophrasti), sesbania (Sesbania exaltata), Cassia (Cassia tora), morningglory (Ipomoea hederacea), jimsonweed (Datura stramonium), cocklebur (Xanthium pensylvanicum), crabgrass (Digitaria spp.), nutsedge (Cyperus rotundus), barnyardgrass (Echinochloa crusgalli), giant foxtail (Setaria faberii) and wild oats (Avena fatua). The following species were grown in soil in a paper cup (12 cm diameter by 13 cm deep): sunflower, sugarbeets, and mustard. All plants were sprayed approximately 14 days after planting.

Alfalfa = test: Test F over-the-top soil/foliage treatment; format: in vivo; set-up: scale not given here; conditions: soil/foliage spray; 0.06 kg/ha; ~14 days
Protocol: as §3, §4

Wild Oats = test: Test F over-the-top soil/foliage treatment; format: in vivo, Avena fatua; set-up: scale not given here; conditions: soil/foliage spray, ~14 days
Protocol: as §3, §4

Wheat [5] = test: Test F over-the-top soil/foliage treatment; format: in vivo, wheet; set-up: scale not given here; conditions: soil/foliage spray, ~14 days
Protocol: as §3, §4

Sugarbeets [6] = test: Test F over-the-top soil/foliage treatment; format: in vivo; conditions: soil/foliage spray; 0.06 kg/ha; ~14 days
Protocol: as §3, §4

Sunflower = test: Test F over-the-top soil/foliage treatment; format: in vivo; conditions: soil/foliage spray, ~14 days
Protocol: as §3, §4

Mustard = test: Test F over-the-top soil/foliage treatment; format: in vivo; conditions: soil/foliage spray, ~14 days
Protocol: as §3, §4

Corn [7] = test: Test F over-the-top soil/foliage treatment; format: in vivo; conditions: soil/foliage spray, ~14 days
Protocol: as §3, §4

Ky. bluegrass = test: Test B pre-emergence on Fallsington silt loam; format: in vivo, Kentucky bluegrass; set-up: scale not given here; conditions: 28 days
Excerpt: as §1, §2

Barnyardgrass [8] = test: Test F over-the-top soil/foliage treatment; format: in vivo, Echinochloa crusgalli; set-up: scale not given here; conditions: soil/foliage spray, ~14 days
Protocol: as §3, §4

Giant Foxtail [9] = test: Test F over-the-top soil/foliage treatment; format: in vivo, Setaria faberii; set-up: scale not given here; conditions: soil/foliage spray, ~14 days
Protocol: as §3, §4

Crabgrass [10] = test: Test F over-the-top soil/foliage treatment; format: in vivo, Digitaria spp.; set-up: scale not given here; conditions: soil/foliage spray, ~14 days
Protocol: as §3, §4

Cheatgrass = test: Test B pre-emergence on Fallsington silt loam; format: in vivo, Bromus secalinus; conditions: 28 days
Excerpt: as §1, §2

Barnyardgrass [11] = test: Test B pre-emergence on Fallsington silt loam; format: in vivo, Echinochloa crusgalli; conditions: 28 days
Excerpt: as §1, §2

Crabgrass [12] = test: Test B pre-emergence on Fallsington silt loam; format: in vivo, Digitaria sanguinalis; set-up: scale not given here; conditions: 28 days
Excerpt: as §1, §2

Jimsonweed = test: Test F over-the-top soil/foliage treatment; format: in vivo, Datura stramonium; conditions: soil/foliage spray; 0.12 kg/ha; ~14 days
Protocol: as §3, §4

Nutsedge [13] = test: Test F over-the-top soil/foliage treatment; format: in vivo, Cyperus rotundus; set-up: scale not given here; conditions: soil/foliage spray, ~14 days
Protocol: as §3, §4

Sesbania = test: Test F over-the-top soil/foliage treatment; format: in vivo, Sesbania exaltata; set-up: scale not given here; conditions: soil/foliage spray; 0.12 kg/ha; ~14 days
Protocol: as §3, §4

Morningglory = test: Test B pre-emergence on Fallsington silt loam; format: in vivo, Ipomoea hederacea; conditions: 0.06 kg/ha, 28 days
Excerpt: as §1, §2

Nutsedge [14] = test: Test B pre-emergence on Fallsington silt loam; format: in vivo, Cyperus rotundus; conditions: 28 days
Excerpt: as §1, §2

Cassia = test: Test B pre-emergence on Fallsington silt loam; format: in vivo, Cassia tora; conditions: 0.06 kg/ha, 28 days
Excerpt: as §1, §2

CCCS(=O)(=O)Oc1ccccc1S(=O)(=O)NC(=O)Nc1nc(C)nc(OC)n1 [Compound 39, 2-hydroxy-N-[(4-methoxy-6-methyl-1,3,5-triazin-2-yl)aminocarbonyl]benzenesulfonamide, 1-propanesulfonate]
Sugarbeets response rating (Sugarbeets [1]): 10C | Wheat response rating (Wheat [2]; 0.06 kg/ha): 0 | Wheat response rating (Wheat [2]; 0.25 kg/ha): 0 | Corn response rating (Corn [3]; 0.06 kg/ha): 2G | Corn response rating (Corn [3]; 0.25 kg/ha): 4G | Giant Foxtail response rating (Giant Foxtail [4]; 0.06 kg/ha): 0 | Giant Foxtail response rating (Giant Foxtail [4]; 0.25 kg/ha): 2G | Soybean response rating (Soybean; 0.06 kg/ha): 3G | Soybean response rating (Soybean; 0.25 kg/ha): 4G | Dallisgrass response rating (Dallisgrass; 0.06 kg/ha): 3G | Dallisgrass response rating (Dallisgrass; 0.25 kg/ha): 0 | Johnsongrass response rating (Johnsongrass; 0.06 kg/ha): 4G | Johnsongrass response rating (Johnsongrass; 0.25 kg/ha): 3G | Pigweed response rating (Pigweed): 4G | Sorghum response rating (Sorghum; 0.007 kg/ha): 3G | Sorghum response rating (Sorghum; 0.03 kg/ha): 5G | Sorghum response rating (Sorghum; 0.06 kg/ha): 0 | Sorghum response rating (Sorghum; 0.12 kg/ha): 0 | Alfalfa response rating (Alfalfa): 10C | Wild Oats response rating (Wild Oats; 0.007 kg/ha): 0 | Wild Oats response rating (Wild Oats; 0.03 kg/ha): 2G | Wild Oats response rating (Wild Oats; 0.06 kg/ha): 0 | Wild Oats response rating (Wild Oats; 0.12 kg/ha): 0 | Wheat response rating (Wheat [5]; 0.007 kg/ha): 0 | Wheat response rating (Wheat [5]; 0.015 kg/ha): 0 | Wheat response rating (Wheat [5]; 0.03 kg/ha): 0 | Wheat response rating (Wheat [5]; 0.06 kg/ha): 0 | Wheat response rating (Wheat [5]; 0.12 kg/ha): 0 | Sugarbeets response rating (Sugarbeets [6]): 10C | Sunflower response rating (Sunflower; 0.015 kg/ha): 10C | Sunflower response rating (Sunflower; 0.06 kg/ha): 10C | Sunflower response rating (Sunflower; 0.12 kg/ha): 10C | Mustard response rating (Mustard; 0.06 kg/ha): 10C | Mustard response rating (Mustard; 0.12 kg/ha): 10C | Corn response rating (Corn [7]; 0.007 kg/ha): 2G | Corn response rating (Corn [7]; 0.06 kg/ha): 0 | Corn response rating (Corn [7]; 0.12 kg/ha): 0 | Ky. bluegrass response rating (Ky. bluegrass; 0.06 kg/ha): 2G | Ky. bluegrass response rating (Ky. bluegrass; 0.25 kg/ha): 4G | Barnyardgrass response rating (Barnyardgrass [8]; 0.007 kg/ha): 2G | Barnyardgrass response rating (Barnyardgrass [8]; 0.015 kg/ha): 0 | Barnyardgrass response rating (Barnyardgrass [8]; 0.03 kg/ha): 3G | Barnyardgrass response rating (Barnyardgrass [8]; 0.06 kg/ha): 0 | Barnyardgrass response rating (Barnyardgrass [8]; 0.12 kg/ha): 0 | Giant Foxtail response rating (Giant Foxtail [9]; 0.007 kg/ha): 1G | Giant Foxtail response rating (Giant Foxtail [9]; 0.03 kg/ha): 2G | Giant Foxtail response rating (Giant Foxtail [9]; 0.06 kg/ha): 0 | Giant Foxtail response rating (Giant Foxtail [9]; 0.12 kg/ha): 0 | Crabgrass response rating (Crabgrass [10]; 0.007 kg/ha): 0 | Crabgrass response rating (Crabgrass [10]; 0.015 kg/ha): 0 | Crabgrass response rating (Crabgrass [10]; 0.03 kg/ha): 0 | Crabgrass response rating (Crabgrass [10]; 0.06 kg/ha): 0 | Crabgrass response rating (Crabgrass [10]; 0.12 kg/ha): 0 | Cheatgrass response rating (Cheatgrass; 0.06 kg/ha): 0 | Cheatgrass response rating (Cheatgrass; 0.25 kg/ha): 3G | Barnyardgrass response rating (Barnyardgrass [11]; 0.06 kg/ha): 4G | Barnyardgrass response rating (Barnyardgrass [11]; 0.25 kg/ha): 5G | Crabgrass response rating (Crabgrass [12]; 0.06 kg/ha): 2G | Crabgrass response rating (Crabgrass [12]; 0.25 kg/ha): 2G | Jimsonweed response rating (Jimsonweed): 0 | Nutsedge response rating (Nutsedge [13]; 0.007 kg/ha): 5G | Nutsedge response rating (Nutsedge [13]; 0.015 kg/ha): 0 | Nutsedge response rating (Nutsedge [13]; 0.03 kg/ha): 3G | Nutsedge response rating (Nutsedge [13]; 0.06 kg/ha): 0 | Nutsedge response rating (Nutsedge [13]; 0.12 kg/ha): 1G | Sesbania response rating (Sesbania): 10C | Morningglory response rating (Morningglory): 9G | Nutsedge response rating (Nutsedge [14]; 0.06 kg/ha): 4G | Nutsedge response rating (Nutsedge [14]; 0.25 kg/ha): 6G

CCCS(=O)(=O)Oc1ccccc1S(=O)(=O)NC(=O)Nc1nc(OC)cc(OC)n1 [Compound 36, N-[(4,6-dimethoxypropimidin-2-yl)aminocarbonyl]-2-hydroxybenzenesulfonamide, 1-propanesulfonate]
Wheat response rating (Wheat [2]; 0.06 kg/ha): 0 | Wheat response rating (Wheat [2]; 0.25 kg/ha): 0 | Corn response rating (Corn [3]; 0.06 kg/ha): 3G | Corn response rating (Corn [3]; 0.25 kg/ha): 4G | Giant Foxtail response rating (Giant Foxtail [4]; 0.06 kg/ha): 4G | Soybean response rating (Soybean; 0.06 kg/ha): 2G | Dallisgrass response rating (Dallisgrass; 0.06 kg/ha): 4G | Dallisgrass response rating (Dallisgrass; 0.25 kg/ha): 5G | Cassia response rating (Cassia): 6G | Ky. bluegrass response rating (Ky. bluegrass; 0.06 kg/ha): 6G | Ky. bluegrass response rating (Ky. bluegrass; 0.25 kg/ha): 7G | Cheatgrass response rating (Cheatgrass; 0.06 kg/ha): 6G | Cheatgrass response rating (Cheatgrass; 0.25 kg/ha): 7G | Barnyardgrass response rating (Barnyardgrass [11]; 0.06 kg/ha): 4G | Crabgrass response rating (Crabgrass [12]; 0.06 kg/ha): 2G | Crabgrass response rating (Crabgrass [12]; 0.25 kg/ha): 4G | Morningglory response rating (Morningglory): 4G | Nutsedge response rating (Nutsedge [14]; 0.06 kg/ha): 7G
